Consider one substance from patent US20020102688A1, “Methods and products for the synthesis of oligosaccharide structures on glycoproteins, glycolipids, or as free molecules, and for the isolation of cloned genetic sequences that determine these structures” (The Regents of the University of Michigan, priority 1990, published 2002).

The test system of the assay is monoclonal anti-H antibody (BE2). In words: Hapten inhibition of BE2 anti-H antibody binding to mH1-12 cells. More on the design: species or system mouse. The following applies: antibody preincubated with hapten, 20 mM. Here is the method:
Immunofluoroscence was performed on cells plated on 8-well tissue culture chamber slides (Lab-Tek). Cells were plated at a density of 5×10^4/well 24 h prior to analysis. Anti-H and anti-A primary antibodies were diluted in PBS containing bovine serum albumin at 2 mg/ml, to a final concentration of 10 μg/ml. Cell-bound primary antibodies were detected with FITC-conjugated goat anti-mouse IgM, diluted to 40 μg/ml in PBS containing 2 mg/ml bovine serum albumin.
Hapten Inhibition—Plated cells were washed twice with PBS, and were incubated for 30 min at 4° C. with 100 μl of diluted anti-H antibody, or with 100 μl of diluted antibody containing different oligosaccharide haptens, each at a concentration of 20 mM. The chambers were then washed twice, and 100 μl of FITC-conjugated goat anti-mouse IgM was added. After 30 min at 4° C., the chambers were washed three times with PBS, and the cells were fixed at room temperature for 10 min in 3.7% formaldehyde in PBS. The cells were washed twice with PBS, the chambers were removed, and the slide was mounted in PBS containing 25% glycerol. Cells were examined by fluorescence microscopy using a Zeiss Axiophot photomicroscope equipped with fluorescence epiillumination.

On to “Fucα(1,2)Galβ(1,4)Glc [2-fucosyllactose]”, for which the “inhibition of BE2 anti-H antibody binding to mH1-12 cells by hapten” value is recorded as “inhibition of binding”.
